From patent publication US20090088403A1, “A3 ADENOSINE RECEPTORS AS TARGETS FOR THE MODULATION OF CENTRAL SEROTONERGIC SIGNALING” (priority 2007, published 2009)

Experiments:
Assay type in all cases: cell-based
SERT = experiment: [3H]5-HT transport assay in mouse brain synaptosomes; conditions: for effect on IB-MECA (10 nM) stimulated 5-HT uptake: inhibitor 10 min before IB-MECA, MRS1191 1 μM, DT-2 1.0 μM, H8 0.1 μM, SB203580 1.0 μM
GABA transport activity = experiment: [3H]GABA uptake in mouse striatal and midbrain synaptosomes; conditions: 10 min
dopamine transporter = experiment: [3H]DA uptake in mouse striatal and midbrain synaptosomes; conditions: 10 min
[1] = midbrain synaptosomes, IB-MECA 10 nM 10 min, MRS1191 1 μM 10 min before IB-MECA, Michaelis-Menten fit, mean (n=3) ±SEM

CCOC(=O)C1=C(C)NC(c2ccccc2)=C(C(=O)OCc2ccccc2)C1C#Cc1ccccc1 (racemic) [MRS1191, 3-ethyl-5-benzyl-2-methyl-phenylethynyl-6-phenyl-1,4(±)dihydropyridine-3,5-dicarboxylate]
effect on IB-MECA (10 nM) stimulated 5-HT uptake (SERT; midbrain synaptosomes): prevented the stimulatory actions of IB-MECA on 5-HT uptake | effect alone on basal 5-HT transport (SERT; synaptosomes, 0.01-100 μM, data not shown): did not influence basal 5-HT transport

CNCCNS(=O)(=O)c1cccc2cnccc12 [H8, N-[2-(methylamino)ethy]-5-isoquinoline-sulfonamide]
effect on IB-MECA (10 nM) stimulated 5-HT uptake (SERT; midbrain synaptosomes): blocked IB-MECA regulation of SERT

CCNC(=O)C1OC(n2cnc3c(N)ncnc32)C(O)C1O (stereo not shown) [NECA, 5′-N-ethyl-carboxamidoadenosine]
effect on SERT activity (SERT; midbrain synaptosomes, 10 min at 37° C.): fails to stimulate SERT activity | effect on 5-HT transport at high concentration (SERT; midbrain synaptosomes, concentrations above 1 μM): inhibited 5-HT transport

C[C@H](Cc1ccccc1)Nc1ncnc2c1ncn2[C@@H]1O[C@H](CO)[C@@H](O)[C@H]1O [R-PIA, (R)—N^6-phenylisopropyladenosine]
impact on 5-HT transport (SERT; midbrain synaptosomes, 1~1000 nM, 10 min at 37° C.): No impact

N6-(3-iodobenzyl)-N-methyl-5′carbamoyladenosine [IB-MECA]
increase in 5-HT transport (SERT; midbrain and hippocampal synaptosomes of A3AR+/+ mice, 10 nM, 10 min): 40-50% | stimulation of SERT activity in A3AR−/− mice (SERT; midbrain and hippocampal synaptosomes of A3AR−/− mice, 10 nM, 10 min): failed to stimulate SERT activity | effect on SERT Vmax for 5-HT (SERT; midbrain synaptosomes, 10 nM): significantly increased the SERT Vmax for 5-HT | 5-HT transport at peak stimulation (SERT; midbrain synaptosomes, 10 nM, 10 min pretreatment): 130-150 % of control levels | time at which stimulation of 5-HT uptake reached a maximum (SERT; midbrain synaptosomes, 10 nM, post-treatment): 10 to 20 min | concentration at which stimulation of 5-HT transport peaked (SERT; midbrain synaptosomes, 10 min pretreatment): 10 nM | Km (SERT; [1]): 0.8 µM | Vmax (SERT; [1]): 2544+/−281 fmol/mg protein/min | effect on 5-HT uptake at high concentration (SERT; midbrain synaptosomes, exceeding 100 μM, data not shown): induced a decrease in 5-HT uptake | SERT activity in striatal synaptosomes (SERT; striatal synaptosomes, 10 min): IB-MECA-insensitive SERT activity | concentration window for stimulation of 5-HT transport (SERT; synaptosomes, for 20 min): 10 to 30 nM | effect on GABA uptake (GABA transport activity): no stimulation | effect on DA uptake (dopamine transporter): no stimulation
